Assay results as given in the NIST ThermoML archive (doi:10.1016/j.fluid.2018.07.027).
± gives the expanded uncertainty stated by the source.

How the values were obtained:
[1] = refractive index (Na D-line) (dimensionless); xn = mol fraction of the nth substance listed; conditions: 298.15 K, 101.3 kPa, Liquid, Standard Abbe refractometry
[2] = xn = mol fraction of the nth substance listed; conditions: 298.15 K, 101.3 kPa, Liquid; for speed of sound: Frequency=3 MHz, Single path-length method; for mass density: Vibrating tube method
[3] = 298.15 K, 101.33 kPa, Liquid; for speed of sound: Single path-length method; for mass density: Vibrating tube method
[4] = refractive index (Na D-line) (dimensionless); conditions: 298.15 K; 101.33 kPa; Liquid; Standard Abbe refractometry
[5] = Boiling temperature at pressure P; conditions: 101.3 kPa; Liquid; Ebulliometric method (Recirculating still)

## CCCCO [butan-1-ol] + CC(C)CC(C)(C)C
[1]; x2 = 0
  refractive index: 1.39725 ± 0.00033
[2]; x2 = 0
  speed of sound: 1240.1 ± 1.1 m/s
  mass density: 805.78 ± 0.91 kg/m3

## CC(C)CC(C)(C)C [2,2,4-trimethylpentane] + CCCCOCCCC
[1]; x1 = 1
  refractive index: 1.38898 ± 0.00033
[2]; x1 = 1
  speed of sound: 1082.6 ± 1.1 m/s
  mass density: 687.71 ± 0.91 kg/m3

## CCCCO [butan-1-ol]
[3]
  speed of sound: 1240.1 ± 1.1 m/s
  mass density: 805.769 ± 0.91 kg/m3
[4]
  refractive index: 1.39725 ± 0.00033

## CC(C)CC(C)(C)C [2,2,4-trimethylpentane]
[3]
  speed of sound: 1082.8 ± 1.1 m/s
  mass density: 687.824 ± 0.92 kg/m3
[4]
  refractive index: 1.38898 ± 0.00033
[5]
  Boiling temperature at pressure P: 99.01 ± 0.05 °C

## CC(C)CC(C)(C)C [2,2,4-trimethylpentane] + CCCCO
[1]; x1 = 0.0518
  refractive index: 1.39663 ± 0.00033
[1]; x1 = 0.1022
  refractive index: 1.39603 ± 0.00033
[1]; x1 = 0.1512
  refractive index: 1.39545 ± 0.00033
[1]; x1 = 0.2028
  refractive index: 1.39484 ± 0.00033
[1]; x1 = 0.2535
  refractive index: 1.39426 ± 0.00033
[1]; x1 = 0.3042
  refractive index: 1.39372 ± 0.00033
[1]; x1 = 0.3535
  refractive index: 1.39318 ± 0.00033
[1]; x1 = 0.4049
  refractive index: 1.39266 ± 0.00033
[1]; x1 = 0.4534
  refractive index: 1.39218 ± 0.00033
[1]; x1 = 0.5032
  refractive index: 1.39173 ± 0.00033
[1]; x1 = 0.5534
  refractive index: 1.39128 ± 0.00033
[1]; x1 = 0.6041
  refractive index: 1.39088 ± 0.00033
[1]; x1 = 0.6558
  refractive index: 1.3905 ± 0.00033
[1]; x1 = 0.7046
  refractive index: 1.39016 ± 0.00033
[1]; x1 = 0.7521
  refractive index: 1.38988 ± 0.00033
[1]; x1 = 0.8047
  refractive index: 1.38958 ± 0.00033
[1]; x1 = 0.8521
  refractive index: 1.38934 ± 0.00033
[1]; x1 = 0.9005
  refractive index: 1.38914 ± 0.00033
[1]; x1 = 0.9502
  refractive index: 1.38897 ± 0.00033
[1]; x1 = 1
  refractive index: 1.38898 ± 0.00033
[2]; x1 = 0.0518
  speed of sound: 1223.4 ± 1.2 m/s
  mass density: 795.39 ± 0.93 kg/m3
[2]; x1 = 0.1022
  speed of sound: 1208.3 ± 1.2 m/s
  mass density: 785.94 ± 0.93 kg/m3
[2]; x1 = 0.1512
  speed of sound: 1194.3 ± 1.1 m/s
  mass density: 777.34 ± 0.93 kg/m3
[2]; x1 = 0.2028
  speed of sound: 1181.5 ± 1.1 m/s
  mass density: 768.9 ± 0.92 kg/m3
[2]; x1 = 0.2535
  speed of sound: 1169.4 ± 1.1 m/s
  mass density: 761.12 ± 0.92 kg/m3
[2]; x1 = 0.3042
  speed of sound: 1157.9 ± 1.1 m/s
  mass density: 753.81 ± 0.92 kg/m3
[2]; x1 = 0.3535
  speed of sound: 1148.6 ± 1.1 m/s
  mass density: 747.12 ± 0.92 kg/m3
[2]; x1 = 0.4049
  speed of sound: 1139.1 ± 1.1 m/s
  mass density: 740.56 ± 0.92 kg/m3
[2]; x1 = 0.4534
  speed of sound: 1130.8 ± 1.1 m/s
  mass density: 734.72 ± 0.92 kg/m3
[2]; x1 = 0.5032
  speed of sound: 1123.4 ± 1.1 m/s
  mass density: 729.09 ± 0.92 kg/m3
[2]; x1 = 0.5534
  speed of sound: 1116.6 ± 1.1 m/s
  mass density: 723.73 ± 0.92 kg/m3
[2]; x1 = 0.6041
  speed of sound: 1110.3 ± 1.1 m/s
  mass density: 718.63 ± 0.92 kg/m3
[2]; x1 = 0.6558
  speed of sound: 1104.5 ± 1.1 m/s
  mass density: 713.71 ± 0.92 kg/m3
[2]; x1 = 0.7046
  speed of sound: 1099.6 ± 1.1 m/s
  mass density: 709.35 ± 0.92 kg/m3
[2]; x1 = 0.7521
  speed of sound: 1095.4 ± 1.1 m/s
  mass density: 705.31 ± 0.92 kg/m3
[2]; x1 = 0.8047
  speed of sound: 1091.1 ± 1.1 m/s
  mass density: 701.05 ± 0.92 kg/m3
[2]; x1 = 0.8521
  speed of sound: 1087.9 ± 1.1 m/s
  mass density: 697.48 ± 0.92 kg/m3
[2]; x1 = 0.9005
  speed of sound: 1085.1 ± 1.1 m/s
  mass density: 694.03 ± 0.92 kg/m3
[2]; x1 = 0.9502
  speed of sound: 1082.8 ± 1.1 m/s
  mass density: 690.74 ± 0.92 kg/m3
[2]; x1 = 1
  speed of sound: 1082.8 ± 1.1 m/s
  mass density: 687.79 ± 0.91 kg/m3
